# Test results from PubChem BioAssay (NCI).
#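 Cells were grown in 96-well plates and exposed to each compound for 48 hours at five concentrations; endpoints were interpolated linearly between bracketing concentrations, or set to the highest concentration if not reached. GI50 = concentration required for 50% inhibition of growth. TGI: total growth inhibition.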
# What was measured:
# Experiment in all cases: DTP human tumour cell line panel, 48 h
# NCI-H522 lung = system: NCI-H522 lung
# MDA-MB-435 = system: MDA-MB-435
# CCRF-CEM leukemia = system: CCRF-CEM leukemia
# SR leukemia = system: SR leukemia
# RPMI-8226 leukemia = system: RPMI-8226 leukemia
# SK-MEL-2 melanoma = system: SK-MEL-2 melanoma
# SNB-75 CNS = system: SNB-75 CNS
# K-562 leukemia = system: K-562 leukemia
# 786-0 renal = system: 786-0 renal
# COLO 205 colon = system: COLO 205 colon
# DU-145 prostate = system: DU-145 prostate
# LOX IMVI melanoma = system: LOX IMVI melanoma
# SK-OV-3 ovarian = system: SK-OV-3 ovarian
# KM12 colon = system: KM12 colon
# T-47D breast = system: T-47D breast
# UACC-257 melanoma = system: UACC-257 melanoma
# ACHN renal = system: ACHN renal
# HS 578T breast = system: HS 578T breast
# MDA-MB-231 breast = system: MDA-MB-231 breast
# A549 NSCLC = system: A549 NSCLC
# NCI-H460 lung = system: NCI-H460 lung
# MCF7 breast = system: MCF7 breast
# SF-295 CNS = system: SF-295 CNS
# SK-MEL-5 melanoma = system: SK-MEL-5 melanoma
# MALME-3M melanoma = system: MALME-3M melanoma
# RXF 393 renal = system: RXF 393 renal
# HT29 colon = system: HT29 colon
# IGROV1 ovarian = system: IGROV1 ovarian
# HOP-62 NSCLC = system: HOP-62 NSCLC
# SNB-19 CNS = system: SNB-19 CNS
# A498 renal = system: A498 renal
# MOLT-4 leukemia = system: MOLT-4 leukemia
# BT-549 breast = system: BT-549 breast
# UACC-62 melanoma = system: UACC-62 melanoma
# HL-60(TB) leukemia = system: HL-60(TB) leukemia
# HOP-92 NSCLC = system: HOP-92 NSCLC
# SF-268 CNS = system: SF-268 CNS
# U251 CNS = system: U251 CNS
# M14 melanoma = system: M14 melanoma
# CAKI-1 renal = system: CAKI-1 renal
# HCT-116 colon = system: HCT-116 colon
# PC-3 prostate = system: PC-3 prostate
# OVCAR-5 ovarian = system: OVCAR-5 ovarian
# SF-539 CNS = system: SF-539 CNS
# TK-10 renal = system: TK-10 renal
# HCC-2998 colon = system: HCC-2998 colon
# EKVX NSCLC = system: EKVX NSCLC
# HCT-15 colon = system: HCT-15 colon
# UO-31 renal = system: UO-31 renal
# OVCAR-3 ovarian = system: OVCAR-3 ovarian
# OVCAR-4 ovarian = system: OVCAR-4 ovarian
# SW-620 colon = system: SW-620 colon
# NCI-H226 lung = system: NCI-H226 lung
# OVCAR-8 ovarian = system: OVCAR-8 ovarian
# SN12C renal = system: SN12C renal
# SK-MEL-28 melanoma = system: SK-MEL-28 melanoma
# NCI/ADR-RES ovarian = system: NCI/ADR-RES ovarian
smiles,measurement,setting,value
Nc1nc(-c2cccc([N+](=O)[O-])c2)c(N=Nc2ccccc2[N+](=O)[O-])s1,GI50,NCI-H522 lung,1.94 µM
same,TGI,NCI-H522 lung,14.4 µM
same,GI50,MDA-MB-435,0.865 µM
same,TGI,MDA-MB-435,> 100 µM
same,GI50,CCRF-CEM leukemia,3.42 µM
same,TGI,CCRF-CEM leukemia,> 100 µM
same,GI50,SR leukemia,22.7 µM
same,TGI,SR leukemia,> 100 µM
same,GI50,RPMI-8226 leukemia,4.18 µM
same,TGI,RPMI-8226 leukemia,> 100 µM
same,GI50,SK-MEL-2 melanoma,14.8 µM
same,TGI,SK-MEL-2 melanoma,38.7 µM
same,GI50,SNB-75 CNS,1.44 µM
same,TGI,SNB-75 CNS,3.61 µM
same,GI50,K-562 leukemia,5.57 µM
same,TGI,K-562 leukemia,> 100 µM
same,GI50,786-0 renal,1.54 µM
same,TGI,786-0 renal,3.01 µM
same,GI50,COLO 205 colon,42.8 µM
same,TGI,COLO 205 colon,> 100 µM
same,GI50,DU-145 prostate,4.79 µM
same,TGI,DU-145 prostate,> 100 µM
same,GI50,LOX IMVI melanoma,1.83 µM
same,TGI,LOX IMVI melanoma,6 µM
same,GI50,SK-OV-3 ovarian,2.13 µM
same,TGI,SK-OV-3 ovarian,5.2 µM
same,GI50,KM12 colon,5.39 µM
same,TGI,KM12 colon,> 100 µM
same,GI50,T-47D breast,4.04 µM
same,TGI,T-47D breast,> 100 µM
same,GI50,UACC-257 melanoma,63.4 µM
same,TGI,UACC-257 melanoma,> 100 µM
same,GI50,ACHN renal,1.27 µM
same,TGI,ACHN renal,2.75 µM
same,GI50,HS 578T breast,2.55 µM
same,TGI,HS 578T breast,9.04 µM
same,GI50,MDA-MB-231 breast,1.46 µM
same,TGI,MDA-MB-231 breast,3.26 µM
same,GI50,A549 NSCLC,20.7 µM
same,TGI,A549 NSCLC,> 100 µM
same,GI50,NCI-H460 lung,2.25 µM
same,TGI,NCI-H460 lung,> 100 µM
same,GI50,MCF7 breast,18.8 µM
same,TGI,MCF7 breast,> 100 µM
same,GI50,SF-295 CNS,2.8 µM
same,TGI,SF-295 CNS,14.1 µM
same,GI50,SK-MEL-5 melanoma,3.41 µM
same,TGI,SK-MEL-5 melanoma,31.1 µM
same,GI50,MALME-3M melanoma,2.9 µM
same,TGI,MALME-3M melanoma,8.6 µM
same,GI50,RXF 393 renal,1.64 µM
same,TGI,RXF 393 renal,3.2 µM
same,GI50,HT29 colon,59 µM
same,TGI,HT29 colon,> 100 µM
same,GI50,IGROV1 ovarian,2.32 µM
same,TGI,IGROV1 ovarian,5.84 µM
same,GI50,HOP-62 NSCLC,2.04 µM
same,TGI,HOP-62 NSCLC,6.33 µM
same,GI50,SNB-19 CNS,3.01 µM
same,TGI,SNB-19 CNS,14.4 µM
same,GI50,A498 renal,7.62 µM
same,TGI,A498 renal,30.5 µM
same,GI50,MOLT-4 leukemia,8.73 µM
same,TGI,MOLT-4 leukemia,> 100 µM
same,GI50,BT-549 breast,4.66 µM
same,TGI,BT-549 breast,32.7 µM
same,GI50,UACC-62 melanoma,2.11 µM
same,TGI,UACC-62 melanoma,> 100 µM
same,GI50,HL-60(TB) leukemia,48.7 µM
same,TGI,HL-60(TB) leukemia,> 100 µM
same,GI50,HOP-92 NSCLC,0.285 µM
same,TGI,HOP-92 NSCLC,3.63 µM
same,GI50,SF-268 CNS,3.62 µM
same,TGI,SF-268 CNS,> 100 µM
same,GI50,U251 CNS,1.69 µM
same,TGI,U251 CNS,3.29 µM
same,GI50,M14 melanoma,4.84 µM
same,TGI,M14 melanoma,61.3 µM
same,GI50,CAKI-1 renal,1.43 µM
same,TGI,CAKI-1 renal,2.98 µM
same,GI50,HCT-116 colon,1.51 µM
same,TGI,HCT-116 colon,5.73 µM
same,GI50,PC-3 prostate,3.43 µM
same,TGI,PC-3 prostate,> 100 µM
same,GI50,OVCAR-5 ovarian,8.34 µM
same,TGI,OVCAR-5 ovarian,> 100 µM
same,GI50,SF-539 CNS,1.47 µM
same,TGI,SF-539 CNS,2.89 µM
same,GI50,TK-10 renal,2.91 µM
same,TGI,TK-10 renal,5.95 µM
same,GI50,HCC-2998 colon,53.5 µM
same,TGI,HCC-2998 colon,> 100 µM
same,GI50,EKVX NSCLC,6.05 µM
same,TGI,EKVX NSCLC,> 100 µM
same,GI50,HCT-15 colon,2.35 µM
same,TGI,HCT-15 colon,> 100 µM
Nc1nc(N)c2c(n1)NC(c1ccc(F)cc1)CC(c1ccc(Nc3nc(NCCO)nc(Nc4ccc(Cl)cc4)n3)cc1)=N2 (centres undefined),GI50,UO-31 renal,3.07 µM
same,TGI,UO-31 renal,20.4 µM
same,GI50,NCI-H522 lung,1.43 µM
same,TGI,NCI-H522 lung,2.97 µM
same,GI50,MDA-MB-435,1.7 µM
same,TGI,MDA-MB-435,3.55 µM
same,GI50,SR leukemia,0.672 µM
same,TGI,SR leukemia,4.75 µM
same,GI50,RPMI-8226 leukemia,1.01 µM
same,TGI,RPMI-8226 leukemia,3.24 µM
same,GI50,SK-MEL-2 melanoma,1.67 µM
same,TGI,SK-MEL-2 melanoma,3.1 µM
same,GI50,SNB-75 CNS,3.35 µM
same,TGI,SNB-75 CNS,16 µM
same,GI50,K-562 leukemia,0.489 µM
same,TGI,K-562 leukemia,> 100 µM
same,GI50,786-0 renal,1.36 µM
same,TGI,786-0 renal,3.11 µM
same,GI50,OVCAR-3 ovarian,1.58 µM
same,TGI,OVCAR-3 ovarian,3.28 µM
same,GI50,COLO 205 colon,1.49 µM
same,TGI,COLO 205 colon,2.94 µM
same,GI50,DU-145 prostate,1.75 µM
same,TGI,DU-145 prostate,3.5 µM
same,GI50,SK-OV-3 ovarian,12.9 µM
same,TGI,SK-OV-3 ovarian,25.5 µM
same,GI50,OVCAR-4 ovarian,1.93 µM
same,TGI,OVCAR-4 ovarian,6.43 µM
same,GI50,KM12 colon,1.68 µM
same,TGI,KM12 colon,3.71 µM
same,GI50,T-47D breast,1.27 µM
same,TGI,T-47D breast,3.2 µM
same,GI50,UACC-257 melanoma,1.85 µM
same,TGI,UACC-257 melanoma,3.52 µM
same,GI50,ACHN renal,3.22 µM
same,TGI,ACHN renal,17.3 µM
same,GI50,A549 NSCLC,3.12 µM
same,TGI,A549 NSCLC,> 100 µM
same,GI50,NCI-H460 lung,1.71 µM
same,TGI,NCI-H460 lung,3.63 µM
same,GI50,MCF7 breast,0.956 µM
same,TGI,MCF7 breast,2.43 µM
same,GI50,SF-295 CNS,1.96 µM
same,TGI,SF-295 CNS,3.75 µM
same,GI50,SK-MEL-5 melanoma,1.46 µM
same,TGI,SK-MEL-5 melanoma,2.78 µM
same,GI50,RXF 393 renal,1.17 µM
same,TGI,RXF 393 renal,2.63 µM
same,GI50,HT29 colon,1.42 µM
same,TGI,HT29 colon,3.15 µM
same,GI50,SW-620 colon,1.6 µM
same,TGI,SW-620 colon,3.27 µM
same,GI50,HOP-62 NSCLC,1.77 µM
same,TGI,HOP-62 NSCLC,4.3 µM
same,GI50,A498 renal,3.72 µM
same,TGI,A498 renal,15.3 µM
same,GI50,MOLT-4 leukemia,0.532 µM
same,TGI,MOLT-4 leukemia,3.47 µM
same,GI50,BT-549 breast,1.56 µM
same,TGI,BT-549 breast,3.17 µM
same,GI50,HL-60(TB) leukemia,0.863 µM
same,TGI,HL-60(TB) leukemia,3.51 µM
same,GI50,HOP-92 NSCLC,1.25 µM
same,TGI,HOP-92 NSCLC,3.54 µM
same,GI50,SF-268 CNS,2.85 µM
same,TGI,SF-268 CNS,12.3 µM
same,GI50,U251 CNS,1.37 µM
same,TGI,U251 CNS,2.73 µM
same,GI50,NCI-H226 lung,2.49 µM
same,TGI,NCI-H226 lung,7.11 µM
same,GI50,M14 melanoma,1.66 µM
same,TGI,M14 melanoma,3.3 µM
same,GI50,OVCAR-8 ovarian,1.16 µM
same,TGI,OVCAR-8 ovarian,2.81 µM
same,GI50,CAKI-1 renal,6.14 µM
same,TGI,CAKI-1 renal,39.6 µM
same,GI50,HCT-116 colon,1.2 µM
same,TGI,HCT-116 colon,2.5 µM
same,GI50,SN12C renal,2.08 µM
same,TGI,SN12C renal,5.19 µM
same,GI50,SK-MEL-28 melanoma,1.7 µM
same,TGI,SK-MEL-28 melanoma,3.18 µM
same,GI50,NCI/ADR-RES ovarian,7.73 µM
same,TGI,NCI/ADR-RES ovarian,> 100 µM
same,GI50,PC-3 prostate,1.72 µM
same,TGI,PC-3 prostate,11.4 µM
same,GI50,OVCAR-5 ovarian,5.1 µM
same,TGI,OVCAR-5 ovarian,24.4 µM
same,GI50,SF-539 CNS,1.56 µM
same,TGI,SF-539 CNS,3.15 µM
same,GI50,TK-10 renal,4.61 µM
same,TGI,TK-10 renal,15.5 µM
same,GI50,HCC-2998 colon,1.61 µM
same,TGI,HCC-2998 colon,3.05 µM
same,GI50,EKVX NSCLC,1.66 µM
same,TGI,EKVX NSCLC,5.35 µM
same,GI50,HCT-15 colon,1.03 µM
same,TGI,HCT-15 colon,2.84 µM
